In ChEMBL document CHEMBL3885861, “Open TG-GATES”:

Organism: Rattus norvegicus
Test: Open TG-GATES - Regimen: Single
Type: toxicity, organism-based, Sprague-Dawley
Design: regimen Single, gender Male, age 6 weeks
Conditions: in vivo, po, 1000 mg/kg, route gavage, dose level Middle; for APTT / Bas / Eos / Fbg / Hb / Ht / Lym / MCHC / MCV / Mono / Neu / PT / Plat / RBC / Ret / WBC: tissue Blood; for KIDNEY_L / KIDNEY_R / KIDNEY_TOTAL: tissue Kidney; for LIVER: tissue Liver; for ALP / ALT / AST / BUN / CRE / DBIL / GLC / IP / K / LDH / Na / PL / RALB / TBIL / TC / TG / TP / gamma-GTP: tissue Plasma

## C#C[C@]1(O)CC[C@H]2[C@@H]3CCC4=Cc5oncc5C[C@]4(C)[C@H]3CC[C@@]21C [DANAZOL]
3 h
  TERMINAL_BW: 216 g
  APTT: 22.9 s
  Bas: 0%
  Eos: 1%
  Fbg: 300.8 mg/dL
  Hb: 13.5 g/dL
  Ht: 40.7%
  Lym: 79.2%
  MCHC: 33.1%
  MCV: 63.8 fL
  Mono: 2.4%
  Neu: 16.2%
  PT: 15.7 s
  Plat: 103.2 x10_4/uL
  RBC: 638.4 x10_4/ul
  Ret: 7.1%
  WBC: 83.8 x10_2/uL
  KIDNEY_L: 0.9 g
  KIDNEY_R: 0.9 g
  KIDNEY_TOTAL: 1.8 g
  LIVER: 9.6 g
  ALP: 1405.8 IU/L
  ALT: 41.8 IU/L
  AST: 78 IU/L
  BUN: 14 mg/dL
  CRE: 0.2 mg/dL
  DBIL: 0.002 mg/dL
  GLC: 178.6 mg/dL
  IP: 7.6 mg/dL
  K: 4.1 meq/L
  LDH: 128 IU/L
  Na: 142.4 meq/L
  PL: 129 mg/dL
  RALB: 3 g/dL
  TBIL: 0.022 mg/dL
  TC: 66.6 mg/dL
  TG: 73.4 mg/dL
  TP: 5.5 g/dL
  gamma-GTP: 1.8 IU/L
6 h
  TERMINAL_BW: 216.7 g
  APTT: 22.9 s
  Bas: 0%
  Eos: 1%
  Fbg: 306.4 mg/dL
  Hb: 13 g/dL
  Ht: 39.6%
  Lym: 74.2%
  MCHC: 32.8%
  MCV: 62.6 fL
  Mono: 3%
  Neu: 21%
  PT: 16.4 s
  Plat: 107.1 x10_4/uL
  RBC: 633.6 x10_4/ul
  Ret: 7.6%
  WBC: 97.7 x10_2/uL
  KIDNEY_L: 0.9 g
  KIDNEY_R: 1 g
  KIDNEY_TOTAL: 1.9 g
  LIVER: 9.5 g
  ALP: 1279 IU/L
  ALT: 34.4 IU/L
  AST: 70.8 IU/L
  BUN: 10.2 mg/dL
  CRE: 0.1 mg/dL
  DBIL: 0.002 mg/dL
  GLC: 181.8 mg/dL
  IP: 9.3 mg/dL
  K: 4.2 meq/L
  LDH: 139.8 IU/L
  Na: 141.4 meq/L
  PL: 131.6 mg/dL
  RALB: 3 g/dL
  TBIL: 0.026 mg/dL
  TC: 67 mg/dL
  TG: 60.4 mg/dL
  TP: 5.4 g/dL
  gamma-GTP: 1.4 IU/L
9 h
  TERMINAL_BW: 208.1 g
  APTT: 21.9 s
  Bas: 0%
  Eos: 0.6%
  Fbg: 302.4 mg/dL
  Hb: 12.9 g/dL
  Ht: 39.7%
  Lym: 77.8%
  MCHC: 32.6%
  MCV: 62.9 fL
  Mono: 2.2%
  Neu: 18.6%
  PT: 16.7 s
  Plat: 114.4 x10_4/uL
  RBC: 630.2 x10_4/ul
  Ret: 7.3%
  WBC: 82.7 x10_2/uL
  KIDNEY_L: 0.9 g
  KIDNEY_R: 1 g
  KIDNEY_TOTAL: 1.9 g
  LIVER: 8.6 g
  ALP: 1309.4 IU/L
  ALT: 33.6 IU/L
  AST: 66.8 IU/L
  BUN: 9.6 mg/dL
  CRE: 0.1 mg/dL
  DBIL: 0.014 mg/dL
  GLC: 178.8 mg/dL
  IP: 9.4 mg/dL
  K: 4.2 meq/L
  LDH: 139 IU/L
  Na: 141.4 meq/L
  PL: 109 mg/dL
  RALB: 3 g/dL
  TBIL: 0.038 mg/dL
  TC: 54.4 mg/dL
  TG: 53 mg/dL
  TP: 5.4 g/dL
  gamma-GTP: 1.6 IU/L
24 h
  TERMINAL_BW: 216 g
  APTT: 23.2 s
  Bas: 0%
  Eos: 1%
  Fbg: 290 mg/dL
  Hb: 13.6 g/dL
  Ht: 41%
  Lym: 81.5%
  MCHC: 33.2%
  MCV: 62.3 fL
  Mono: 2.8%
  Neu: 13.5%
  PT: 17.8 s
  Plat: 107.7 x10_4/uL
  RBC: 658.6 x10_4/ul
  Ret: 6.6%
  WBC: 73 x10_2/uL
  KIDNEY_L: 1 g
  KIDNEY_R: 1 g
  KIDNEY_TOTAL: 2 g
  LIVER: 10.5 g
  ALP: 1988.8 IU/L
  ALT: 42.4 IU/L
  AST: 72.2 IU/L
  BUN: 13.8 mg/dL
  CRE: 0.1 mg/dL
  DBIL: 0 mg/dL
  GLC: 184.6 mg/dL
  IP: 6.5 mg/dL
  K: 4.5 meq/L
  LDH: 186 IU/L
  Na: 141 meq/L
  PL: 123 mg/dL
  RALB: 3.1 g/dL
  TBIL: 0.002 mg/dL
  TC: 45.8 mg/dL
  TG: 233.4 mg/dL
  TP: 5.5 g/dL
  gamma-GTP: 1.2 IU/L
